# Test results taken from EP1013272A1, “Manipulation of the activity of a nitric oxide radical production pathway for the treatment of diseases associated with the presence of oxygen free radicals” (Biomedical Primate Research Centre (BPRC), priority 1998, dated 2000).
# Tests used:
# rat spleen cell cultures = experiment: In vivo exposure to HgCl2, then ELISPOT of Con A-stimulated spleen cell cultures; details: for reduction in the ratio of IFN-γ pc/IL-4 pc: day 3 after first HgCl2 injection
# Description: (§1) Female BN and Lewis rats at 8 to 12 weeks of age were used in all experiments. Animals were obtained from Harlan CPB (Zeist, The Netherlands) and housed in the animal care facility of our institute and maintained on standard laboratory chow and water ad libitum. For some experiments, rats were injected twice with 1 mg HgCl2/kg body weight by the intraperitoneal route with an interval of 48 h. Four repeated i.p. injections with this dose of HgCl2 at 48 h intervals induce a TH2-biased autoimmune syndrome in BN but not Lewis rats that becomes clinically evident (massive proteinuria) approximately 13 days after the first injection with HgCl2 (16).
# The aseptically removed spleen was gently crushed with the blunt end of a 5-ml syringe plunger and passaged through a fine mesh nylon screen. Erythrocytes were hemolysed by adding cold sterile water for 20 sec. to cell pellets followed by the addition of half the volume of 2.7% saline. The number of cells was determined by use of Türk's solution and cell viability by means of trypan blue exclusion. Cell suspensions in which the viability was less than 85% were excluded from the studies. Splenocytes were washed twice with CM5, adjusted to 4 x 10^6 cells/ml, transferred to a 24-well culture plate (1.0 ml/well) and stimulated with Con A (5 µg/ml) in the presence or absence of various supplements (as indicated in the text) for 40 h at 37°C in a humidified atmosphere containing 5% CO2. Thereafter, non-adherent cells were collected and subjected to ELISPOT analyses as described below.
# The ELISPOT assay for detecting single cytokine secreting cells has been detailed previously (17). Briefly, the wells of PVC microplates were coated with monoclonal antibodies specific for rat IFN-γ or rat IL-4. After washing and postcoating, 100 µl suspensions of Con A-activated splenocytes were pipetted into the wells. The cells were allowed the produce cytokines for either 4 h (IFN-γ pc) or 16 h (IL-4 pc). Thereafter, cells were lysed for 10 minutes with ice-cold distilled water. Subsequently, the wells were thoroughly washed with PBS containing 0.05% Tween-20. Spots were detected by the sequential incubation of biotinylated rabbit anti-cytokine antibodies and goat anti-biotin antibodies conjugated to alkaline phosphatase (AP). The AP substrate 5-bromo-4-chloro-3-indolyl phosphate was used to produce blue zones ('spots') that visualised the positions of the individual spot-forming cells (SFC). SFC were enumerated by image analysis using a stereo microscope coupled to a colour video camera and Micro Image software from Olympus Optical Co. The frequency of spontaneously occurring SFC was always less than 1% of the mitogen-induced frequency.
# Spleens were isolated from rats at 24 h after the second intraperitoneal injection with saline or HgCl2 (1 mg/kg b.w.). Spleen cells were stimulated with Con A (5 µg/ml) in the presence of 2 mM GSH. The experiments were performed at three independent occasions with similar results. At each occasion the ELISPOT analyses were performed in quadruplicate. One representative experiment is presented. Both reduction of IFN-γ pc and enhancement of IL-4 pc (BN splenocytes only) as a result of in vivo exposure to HgCl2 reached in all analyses statistical significance (p < 0.01).
# splenocytes = experiment: Superoxide anion release by splenocytes after in vivo HgCl2; set-up: species or system rat
# Description: as §1
# The pMØ monolayers were incubated for 20 h at 37°C in CM10 and subsequently washed (twice) with Hanks' balanced salt solution (HBSS) without phenol red. Thereafter, the cells were treated with PMA and assayed for ^·O2^- production by measuring the rate of SOD-inhibitable ferricytochrome C reduction (20, 21). To that purpose the macrophage monolayer was incubated for 1 h at 37°C with an 1.0 ml reaction mixture containing 100 µM ferricytochrome C in HBSS with or without PMA (100 ng/ml). […] Each test was run in duplicate and the absorption increase at 550 nm was measured using a Beckmann DU-5 spectrophotometer. ^·O2^- release by splenocytes was determined after Con A activation of 4 x 10^6 cells for 20 h. […]
# [1] = BN, HgCl2 in vivo, no culture supplement, Con A + 2 mM GSH (Table 4)
# [2] = BN, HgCl2 in vivo, no culture supplement, Con A + 2 mM GSH (Table 6)
# [3] = BN, HgCl2 1 mg/kg b.w. i.p. twice, spleens 24 h after second injection, Con A 5 µg/ml + 2 mM GSH
# [4] = Lewis, HgCl2 in vivo, no culture supplement, Con A + 2 mM GSH (Table 4)
# [5] = Lewis, HgCl2 in vivo, no culture supplement, Con A + 2 mM GSH (Table 6)
# [6] = Lewis, HgCl2 1 mg/kg b.w. i.p. twice, spleens 24 h after second injection, Con A 5 µg/ml + 2 mM GSH
smiles,measurement,setting,value
"[Cl][Hg][Cl] [HgCl2, mercuric chloride]",reduction in the ratio of IFN-γ pc/IL-4 pc,rat spleen cell cultures; BN splenocyte cultures,~6 fold
same,IFN-γ pc per 1x10^4 MNC,rat spleen cell cultures; [1],30 ± 8 per 1 x 10^4 MNC
same,IL-4 pc per 2x10^5 MNC,rat spleen cell cultures; [1],88 ± 14 per 2 x 10^5 MNC
same,ratio IFN-γ pc/IL-4 pc,rat spleen cell cultures; [1],6.8
same,IFN-γ pc per 1x10^4 MNC,rat spleen cell cultures; [2],35 ± 8 per 1x10^4 MNC
same,IL-4 pc per 2x10^5 MNC,rat spleen cell cultures; [2],87 ± 14 per 2x10^5 MNC
same,ratio pc IFN-γ/IL-4,rat spleen cell cultures; [2],8
same,IFN-γ pc per 1x10^4 MNC,rat spleen cell cultures; [3],34 ± 8 per 1 x 10^4 MNC
same,IL-4 pc per 2x10^5 MNC,rat spleen cell cultures; [3],101 ± 12 per 2 x 10^5 MNC
same,ratio IFN-γ pc/IL-4 pc,rat spleen cell cultures; [3],6.7
same,reduction in the ratio of IFN-γ pc/IL-4 pc,rat spleen cell cultures; Lewis splenocyte cultures,~2 fold
same,IFN-γ pc per 1x10^4 MNC,rat spleen cell cultures; [4],104 ± 1 per 1 x 10^4 MNC
same,IL-4 pc per 2x10^5 MNC,rat spleen cell cultures; [4],11 ± 3 per 2 x 10^5 MNC
same,ratio IFN-γ pc/IL-4 pc,rat spleen cell cultures; [4],189
same,IFN-γ pc per 1x10^4 MNC,rat spleen cell cultures; [5],104 ± 11 per 1x10^4 MNC
same,IL-4 pc per 2x10^5 MNC,rat spleen cell cultures; [5],13 ± 3 per 2x10^5 MNC
same,ratio pc IFN-γ/IL-4,rat spleen cell cultures; [5],160
same,IFN-γ pc per 1x10^4 MNC,rat spleen cell cultures; [6],103 ± 9 per 1 x 10^4 MNC
same,IL-4 pc per 2x10^5 MNC,rat spleen cell cultures; [6],12 ± 7 per 2 x 10^5 MNC
same,ratio IFN-γ pc/IL-4 pc,rat spleen cell cultures; [6],172
same,^·O2^- levels,splenocytes,below the detection limit
